From patent US10598672B2, “Methods and compositions for diagnosing and treating loss and/or distortion of taste or smell” (Cyrano Therapeutics, Inc., priority 2014, dated 2020)
Marks after values point to notes of the source that are not given here.

Columns and labels:
[1] = system: patients with taste dysfunction; assay: Gustometry: DT, RT, ME (and HR) for NaCl, sucrose, HCl, urea; type: in vivo, human
Experimental: Smell and taste functions under each study condition were measured by standardized psychophysical sensory testing techniques. Measurements included determination of detection thresholds (DTs), recognition thresholds (RTs), magnitude estimation (ME), and hedonic response (HR) for 4 odors (i.e., pyridine [dead fish], nitrobenzene [bitter almond], thiophene [petroleum], and amyl acetate [banana oil]) (olfactometry) and for 4 tastants (i.e., sodium chloride [salt], sucrose [sweet], hydrochloride [sour], and urea [bitter]) (gustometry). These techniques have been previously described with olfactometry confirmed in a prior controlled double-blind clinical trial. Each measurement was performed independent of any prior knowledge of response.
Gustometry measurements included measurements of detection (DT) and recognition (RT) thresholds and magnitude estimation (ME) for four tastants [NaCl (salt), sucrose (sweet), HCl (sour) and urea (bitter)]. Abnormalities of taste function were measured by increased DT or RT above normal (decreased sensitivity) and/or decreased ME (decreased sensitivity) for one or more of the tastants presented.

patients with hyposmia = assay: Olfactometry: DT, RT, ME and H for pyridine, nitrobenzene, thiophene, amyl acetate; type: in vivo, human; conditions: for AMYL ACETATE DT, detection threshold / AMYL ACETATE H, hedonic value / AMYL ACETATE ME, magnitude estimation / AMYL ACETATE RT, recognition threshold / NI[…], detection threshold / NI[…], hedonic value / NI[…], magnitude estimation / NI[…], recognition threshold / PYRIDINE DT, detection threshold / PYRIDINE H, hedonic value / PYRIDINE ME, magnitude estimation / PYRIDINE RT, recognition threshold / THIOPHENE DT, detection threshold / THIOPHENE H, hedonic value / THIOPHENE ME, magnitude estimation / THIOPHENE RT, recognition threshold: hyposmic, oral theophylline, Mean ± SEM
[2] = TH[…] (81) patients with taste dysfunction, Mean ± SEM
[3] = after intranasal treatment vs before treatment or after oral treatment
[4] = after oral treatment vs before treatment
[5] = ALL PATIENTS (31) treated with oral theophylline
[6] = ALLERGIC RHINITIS (11) treated with oral theophylline
[7] = CONGENITAL (9) treated with oral theophylline
[8] = PIHH (10) treated with oral theophylline
[9] = POST GENERAL ANESTHESIA (1) treated with oral theophylline

Structure (SMILES): Cn1c(=O)c2[nH]cnc2n(C)c1=O [theophylline]
- NaCl DT, Detection Threshold [1, 2]: 3.4 ± 0.2^
- NaCl ME, Magnitude Estimation [1, 2]: 58 ± 5
- NaCl RT, Recognition Threshold [1, 2]: 3.6 ± 0.2
- SCl DT, Detection Threshold [1, 2]: 3.6 ± 0.2
- SCl ME, Magnitude Estimation [1, 2]: 54 ± 5
- SCl RT, Recognition Threshold [1, 2]: 3.7 ± 0.3
- SUCROSE DT, Detection Threshold [1, 2]: 3.3 ± 0.2
- SUCROSE ME, Magnitude Estimation [1, 2]: 49 ± 5
- SUCROSE RT, Recognition Threshold [1, 2]: 3.6 ± 0.2
- UREA DT, Detection Threshold [1, 2]: 3.9 ± 0.3
- UREA ME, Magnitude Estimation [1, 2]: 54 ± 5
- UREA RT, Recognition Threshold [1, 2]: 3.9 ± 0.3
- DTs and RTs for all tastants [1, 3]: lower (more sensitive)
- HRs for sucrose [1, 3]: more positive (more pleasant)
- Hedonic responses for sodium chloride, hydrochloride, and urea [1, 3]: more negative (more unpleasant)
- Magnitude estimations for all tastants [1, 3]: higher (more intense)
- DTs for sucrose and hydrochloride and RTs for sodium chloride, hydrochloride, and urea [1, 4]: decreased (more sensitive)
- HR for hydrochloride and urea [1, 4]: increased (more unpleasant)
- Magnitude estimations for all tastants [1, 4]: increased (more sensitive)
- gustometric functions ([1]; patients with taste dysfunction, oral treatment): improving gustometric functions
- SMELL IMPROVEMENT Patient (%) (patients with hyposmia; [5]): 61%
- SMELL IMPROVEMENT Patient Number (patients with hyposmia; [5]): 19
- SMELL IMPROVEMENT Patient (%) (patients with hyposmia; [6]): 45%
- SMELL IMPROVEMENT Patient Number (patients with hyposmia; [6]): 5
- SMELL IMPROVEMENT Patient (%) (patients with hyposmia; [7]): 56%
- SMELL IMPROVEMENT Patient Number (patients with hyposmia; [7]): 5
- SMELL IMPROVEMENT Patient (%) (patients with hyposmia; [8]): 80%
- SMELL IMPROVEMENT Patient Number (patients with hyposmia; [8]): 8
- SMELL IMPROVEMENT Patient (%) (patients with hyposmia; [9]): 100%
- SMELL IMPROVEMENT Patient Number (patients with hyposmia; [9]): 1
- AMYL ACETATE DT, detection threshold (patients with hyposmia; TREATED MEN (19)): 4.7 ± 0.9^b BU
- AMYL ACETATE H, hedonic value (patients with hyposmia; TREATED MEN (19)): 3 ± 3%
- AMYL ACETATE ME, magnitude estimation (patients with hyposmia; TREATED MEN (19)): 17 ± 5%
- AMYL ACETATE RT, recognition threshold (patients with hyposmia; TREATED MEN (19)): 5.3 ± 0.9^a BU
- NI[…], detection threshold (patients with hyposmia; TREATED MEN (19)): 4.8 ± 1.1^b BU
- NI[…], hedonic value (patients with hyposmia; TREATED MEN (19)): 6 ± 5%
- NI[…], magnitude estimation (patients with hyposmia; TREATED MEN (19)): 19 ± 5%
- NI[…], recognition threshold (patients with hyposmia; TREATED MEN (19)): 5.2 ± 1.2^b BU
- PYRIDINE DT, detection threshold (patients with hyposmia; TREATED MEN (19)): 4.8 ± 0.9^a BU
- PYRIDINE H, hedonic value (patients with hyposmia; TREATED MEN (19)): −30 ± 7%
- PYRIDINE ME, magnitude estimation (patients with hyposmia; TREATED MEN (19)): 36 ± 7%
- PYRIDINE RT, recognition threshold (patients with hyposmia; TREATED MEN (19)): 5.6 ± 1.0^c BU
- THIOPHENE DT, detection threshold (patients with hyposmia; TREATED MEN (19)): 5.6 ± 0.9^b BU
- THIOPHENE H, hedonic value (patients with hyposmia; TREATED MEN (19)): −7 ± 3%
- THIOPHENE ME, magnitude estimation (patients with hyposmia; TREATED MEN (19)): 15 ± 5%
- THIOPHENE RT, recognition threshold (patients with hyposmia; TREATED MEN (19)): 7.6 ± 1.0 BU
- AMYL ACETATE DT, detection threshold (patients with hyposmia; TREATED WOMEN (12)): 7.4 ± 1.1 BU
- AMYL ACETATE H, hedonic value (patients with hyposmia; TREATED WOMEN (12)): 2 ± 6%
- AMYL ACETATE ME, magnitude estimation (patients with hyposmia; TREATED WOMEN (12)): 22 ± 7%
- AMYL ACETATE RT, recognition threshold (patients with hyposmia; TREATED WOMEN (12)): 8.7 ± 1.0 BU
- NI[…], detection threshold (patients with hyposmia; TREATED WOMEN (12)): 6.8 ± 1.4 BU
- NI[…], hedonic value (patients with hyposmia; TREATED WOMEN (12)): 8 ± 7%
- NI[…], magnitude estimation (patients with hyposmia; TREATED WOMEN (12)): 25 ± 8%
- NI[…], recognition threshold (patients with hyposmia; TREATED WOMEN (12)): 7.3 ± 1.1 BU
- PYRIDINE DT, detection threshold (patients with hyposmia; TREATED WOMEN (12)): 7.1 ± 0.9 BU
- PYRIDINE H, hedonic value (patients with hyposmia; TREATED WOMEN (12)): −38 ± 8%
- PYRIDINE ME, magnitude estimation (patients with hyposmia; TREATED WOMEN (12)): 42 ± 9%
- PYRIDINE RT, recognition threshold (patients with hyposmia; TREATED WOMEN (12)): 8.0 ± 1.0 BU
- THIOPHENE DT, detection threshold (patients with hyposmia; TREATED WOMEN (12)): 7.1 ± 1.2 BU
- THIOPHENE H, hedonic value (patients with hyposmia; TREATED WOMEN (12)): −19 ± 6%
- THIOPHENE ME, magnitude estimation (patients with hyposmia; TREATED WOMEN (12)): 30 ± 7%
- THIOPHENE RT, recognition threshold (patients with hyposmia; TREATED WOMEN (12)): 8.1 ± 1.3 BU
- DTs and RTs for each odor (patients with hyposmia; [3]): lower (more sensitive)
- Hedonic responses to nitrobenzene (patients with hyposmia; [3]): more positive (more pleasant)
- Hedonic responses to thiophene (patients with hyposmia; [3]): more negative (more unpleasant)
